Laboratory results: patent US20160115129A1, “NOVEL F[…] ACID ESTER COMPOUND AND SALT THEREOF” (TAIHO PHARMACEUTICAL CO., LTD., priority 2013, published 2016)
Values belong to the compound of their own block, whether it stands above or below them.

Key:
female SD rats = test: Urethral baseline pressure (intraurethral pressure) in anesthetized rats after oral administration; format: in vivo; conditions: 10 mg/kg oral, 11-week-old female SD rats, 30 minutes after 8 hours from administration, compared with solvent administration group (Student's t-test), FIG. 1
Experimental: The compounds of the present invention and a comparative compound were individually orally administered in an amount of 10 mg/kg to 11-week-old female SD rats (test substance-administration groups) and distilled water was orally administered as the control to 11-week-old female SD rats (solvent administration group, n=8). As the comparative compound, 4-piperidyl 2,2-diphenyl-2-propoxyacetate was used (Comparative Example).
Seven and a half hours after administration, each rat was anesthetized by intraperitoneal administration of 1.2 g/kg of urethane. Thereafter, the ureters and the area between the urethra and the bladder were ligated, and a vesical fistula catheter and a catheter for measuring intraurethral pressure were inserted and indwelled in the bladder and the urethra. […] Intravesical pressure and intraurethral pressure were recorded via a polygraph connected with the pressure transducers. […] Physiological saline was injected into the urethra using the micro syringe pump connected to the urethra at 3 mL/hr, and the changes in intraurethral pressure associated with the rhythmic contraction were recorded.
The mean values of the urethral baseline pressure for the solvent administration group and the test substance-administration groups were calculated, and the results were indicated as mean±SE. […]

Structure (SMILES): Cl.O=C(OC1CCNCC1)C(OCC(F)F)(c1ccccc1)c1ccccc1
melting point: 172 to 174 °C

Structure (SMILES): Cl.O=C(OC1CCNCC1)C(OCC(F)(F)C(F)(F)F)(c1ccccc1)c1ccccc1
melting point: 98 to 100 °C

Structure (SMILES): Cl.O=C(OC1CCNCC1)C(OCC(F)(F)C(F)F)(c1ccccc1)c1ccccc1
melting point: 128 to 130 °C

Structure (SMILES): CCCOC(C(=O)OC1CCNCC1)(c1ccccc1)c1ccccc1 [comparative compound, 4-piperidyl 2,2-diphenyl-2-propoxyacetate]
urethral baseline pressure (female SD rats): little effect
urethral baseline pressure (female SD rats; listed as Comparative Example): did not have a significant effect

Second part, the compound after the results:

melting point: 135 to 136 °C
Structure (SMILES): Cl.O=C(OC1CCNCC1)C(OCCCF)(c1ccccc1)c1ccccc1

melting point: 152 to 153 °C
Structure (SMILES): Cl.O=C(OC1CCNCC1)C(OCCC(F)(F)F)(c1ccccc1)c1ccccc1

melting point: 130 to 132 °C
Structure (SMILES): Cl.O=C(COCCC(F)F)OC1CCNCC1
